Consider one compound from patent US10624336B2, “In-vitro embryonic culture medium comprising an inhibitor of cathepsin L and the use of the same in embryo cryopreservation” (BEIJING UNIVERSITY OF AGRICULTURE, priority 2016, dated 2020).

Values joined by “and” are separate entries in the source; they are usually repeats but may differ in a detail not shown here. Equal values may be shown once. Marks after values point to notes of the source that are not given here.

The test relates to normally hatched blastocysts from mice. Put plainly: Thawed recovery rate of normally hatched mouse blastocysts incubated with E-64d before programmed freezing. It counts as cell-based. The settings on record: for the thawed recovery rate (%): 2 h incubation before freezing, counted after 24-hour recovery, mean ± SD. As to the method: Female mice with pale pink vulvas were randomized and intraperitoneally injected with pregnant mare serum gonadotrophin (PMSG) at a dosage of 10 IU/mouse. After 48 hours, the female mice were further injected with human chorionic gonadotropin (hCG) at a dosage of 10 IU/mouse, and then were immediately housed in a cage with adult male mice at a ratio of 1:1 overnight for mating. The mice were checked for mating at 8 a.m. next day and injected with anti-PMSG (A-PMSG) at a dosage of 10 IU/mouse once the vaginal suppository was observed. The mice were sacrificed at 9 a.m. on Day 5 after the vaginal suppository was observed. The uteruses on both sides of the mice were removed and flushed with the PBS working solution to obtain normally hatched blastocysts.
The normally hatched blastocysts as obtained (about 100 blastocysts) were rinsed with 100 μl PBS solution for three times and then with 100 μl CZB working solution for another three times. Afterwards, the blastocysts were transferred into drops of the E-64d-CZB working solutions at 0, 0.5, 1, 1.5, 2, 3, 5, and 10 μmol/L, and then incubated in vitro in an incubator at 37° C., 5% CO2 in air, and 100% humidity for 2 hours.
The incubated embryos were washed twice with the PBS working solution, then subjected to PBS removal through a three-step process, and equilibrated for 5 min in a freezing solution (Bioniche, ViGRO™, ETHYLENE GLYCOL FREEZE (with Sucrose), Lot:150206-2P). Afterwards, the embryos were placed in 0.25 ml plastic straws. Then the straws containing the embryos were placed in a control rate freezer, cooled to −5° C. at a rate of 1° C./min, and then equilibrated for 10 min. During equilibration, the straws containing the embryos were clamped with pre-cooled forceps at the upper end for 3-5 seconds, thereby the freezing solution forming ice crystals, that is to say, ice seeding was completed. The straws containing the embryos were equilibrated for another 10 minutes, and then cooled down to −35° C. at a rate of 0.3° C./min. Subsequently, the frozen straws were placed in liquid nitrogen.
During thawing, the frozen straws were removed from the liquid nitrogen, gently shaken at room temperature for 5-10 seconds, placed in water at 35° C. for 10-15 seconds, and then removed from the water. The plugs at both ends of the straws were cut off, and then the embryos in the straws were placed in watch glasses, and subjected to the removal of the freezing solution through a three-step process. After recovery by thawing, the embryos were placed into drops of equilibrated fresh CZB for 24-hour recovery. After 24 hours, the thawed recovery rate was counted.
The three-step process for PBS removal as mentioned above was specifically as follows. Before the embryos were immersed in the freezing solution and then placed in straws for freezing, they were washed with 100 μl of the drops of the following mixed solutions sequentially (3-5 min for each mixed solution): the freezing solution ⅓+PBS ⅔, the freezing solution ½+PBS ½, and the freezing solution ⅔+PBS ⅓.
The three-step process for the removal of the freezing solution as mentioned above was specifically as follows. The embryos were washed with 100 μl of the drops of the following mixed solutions sequentially (3-5 min for each mixed solution): the freezing solution ⅔+PBS ⅓, the freezing solution ½+PBS ½, and the freezing solution ⅓+PBS ⅔.
All the experimental data was subjected to Chi-square analysis by SPSS 21.0 statistical software.

As for `CCOC(=O)[C@H]1O[C@@H]1C(=O)N[C@@H](CC(C)C)C(=O)NCCC(C)C` [E-64d, ethyl (2S,3S)-3-[[(2S)-4-methyl-1-(3-methylbutylamino)-1-oxopentan-2-yl]carbamoyl]oxirane-2-carboxylate], the “the thawed recovery rate (%)” value is 75.35 ± 3.51^b % (E-64d 0.5 μmol/L in CZB medium); 80.67 ± 5.40^Aa % (E-64d 1 μmol/L in CZB medium); 79.45 ± 4.28^Aa % (E-64d 1.5 μmol/L in CZB medium); 78.65 ± 2.56^b % (E-64d 2 μmol/L in CZB medium); 76.26 ± 5.32^b % (E-64d 3 μmol/L in CZB medium); 72.64 ± 2.13^B % (E-64d 5 μmol/L in CZB medium). Also, the “the thawed recovery rate (%)” value (E-64d 10 μmol/L in CZB medium) is 62.58% and 62.58 ± 3.72^B %. The “thawed recovery rate compared with the control (in words)” value runs as follows: (E-64d 5 μmol/L) “nearly comparable to that in absence of the inhibitor”; (E-64d 0.5-3 μmol/L) “improved to different extents as compared with the control”. Further, the “decrease of the thawed recovery rate as compared with the control” value (E-64d 10 μmol/L) is listed as “about 15%”. Where the note is “E-64d 1 or 1.5 μmol/L”, the “improvement of the thawed recovery rate as compared with the control” value was “about 10%”.
